US9388215B2, “Compositions and methods of using islet neogenesis peptides and analogs thereof” (SHENZHEN HIGHTIDE BIOPHARMACEUTICAL, LTD., priority 2013, dated 2016)
Like-named read-outs stand apart in the source and are kept apart here.

Columns and labels:
[1] = Peptide stability in mouse plasma; type: in vitro ADME; conditions: 100 μg/mL, 37° C.; FIG. 3, 5, 14
Description: (§1) The stability of peptides was also tested in mouse and human plasma. Briefly, a certain amount of peptides and eucatropine powder (positive control) was accurately weighed. Test compounds were dissolved in 50% methanol-water solution and diluted to 20 mg/mL, and eucatropine was dissolved in dimethylsulfoxide (DMSO) and diluted to 10 mM, as a stock solution. Eucatropine stock solution was diluted to 0.2 mM with DMSO as a working solution. A stop reagent was prepared containing 200 ng/mL midazolam and tolbutamide in acetonitrile. A volume of 300 μL of stop solution was added to each well of a 96-well deep-well plate placed on ice beforehand.
(§2) For the stability studies, peptides and eucatropine were spiked into plasma respectively, mixed well, and then 100 μL of each mixture solution was transferred into the pre-cooled stop reagent as 0 time point sample. The remaining mixtures were incubated in a 37° C. water bath with shaking at 100 rpm (n=2). The final incubation concentration was 1 for eucatropine and 100 μg/mL for all test compounds.
(§3) At desired time points, 100 μL of incubation mixture was transferred to the stop reagent to precipitate proteins. Samples were vortexed and centrifuged at RCF 5000×g for 10 minutes, and supernatant was transferred to a test plate. The samples were analyzed by LC-MS/MS.
(§4) Slope was calculated by plotting the natural logarithm of the percentage of remaining amount of test compounds and time, and T1/2 was calculated in accordance with the following formula.
For stability in mouse plasma, the incubation time was 0, 5, 15, 30 and 60 min for Peptide 1 and eucatropine; 0, 15, 30, 60, 120, 240 and 480 min for Peptide 12, Peptide 16 and Peptide 29.
In another stability study in mouse plasma, the incubation time was 0, 30, 60 and 120 min for Peptide 2 and eucatropine; 0, 30, 60, 120, 240 and 960 min for Peptide 52 and Peptide 54.
as §1, with “tested in rat, mouse and” for “tested in mouse and”
as §2, with “was 1 μM for eucatropine” for “was 1 for eucatropine”
For stability in mouse plasma, the incubation time was 0, 15, 30, 60 and 120 min for Peptide 1 and eucatropine; 0, 15, 30, 60, 120, and 240 min for Peptide 31.

[2] = Peptide stability in rat plasma; type: in vitro ADME; conditions: 100 μg/mL, 37° C.; FIG. 12, 13
Description: as §1, with “tested in rat, mouse and” for “tested in mouse and”
as §2, with “was 1 μM for eucatropine” for “was 1 for eucatropine”
as §3, §4
For stability in rat plasma, the incubation time was 0, 15, 30, 60 and 120 min for Peptide 1 and eucatropine, and 0, 15, 30, 60, 120, and 240 min for Peptide 12, Peptide 16, Peptide 29 and Peptide 31.
In another stability study in rat plasma, the incubation time was 0, 30, 60 120 and 240 min for Peptide 2, Peptide 52, Peptide 64 and eucatropine.

[3] = Peptide concentration in plasma and pancreas 30 min post dose; type: in vivo, rat; conditions: male SD rats, sc bolus 25 mg/kg, 30 min post-dose; for level at 0.5 h: male, Sprague-Dawley, rat, sc, 25 mg/kg
Description: To further characterize the pharmacokinetic (PK) properties of peptides, peptide concentration in pancreas—the target organ, was determined 30 min post dose. Briefly, INGAP-PP (Peptide 1), Peptide 12, or Peptide 31 was dissolved in sterile normal saline and then was administered via subcutaneous (sc) bolus at the dose level of 25 mg/kg to male Sprague-Dawley (SD) rats. Five animals in each group were used for blood and pancreas collection at the time point of 30 min post-dose. Blood samples (approximately 400 μL) were collected and placed into tubes containing EDTA-K2 and centrifuged at 8000 rpm for 6 minutes at 4° C. to separate plasma from the samples. After blood extraction and animal sacrifice, the pancreas was removed immediately from each animal, cleared of fat and lymph nodes, weighed, and placed into 5 fold volume of ice cold sterile normal saline with protease inhibitor cocktail (Merck Millipore, catalogue #539137) to homogenize with a homogenizer.
The peptide concentration of the plasma and pancreatic homogenate was determined immediately using tandem mass spectrometry (LC-MS/MS) analysis and the results are presented in Table 8.

[4] = type: physicochemical; conditions: pH 5
Description: Peptide stability in buffers was tested for INGAP-PP and selected analogs. 10 mg/mL of Peptide 1, Peptide 12, Peptide 16, Peptide 29 or Peptide 31 was dissolved in isotonic buffers with pH ranging from 4.0 to 8.0. […] Peptide 12 and Peptide 29 were stable in an isotonic phosphate buffer (pH 7.4) for more than 90 days at 4° C. (there was no sign of degradation at 90 days sample check point), and 60 days at 25° C.

[5] = system: pancreatic islets; assay: Glucose-stimulated insulin secretion (GSIS) of isolated islets; type: cell-based, rat; conditions: 12.0 mM glucose; 10 μg/mL peptide or 100 nM GLP-1; 60 min; FIG. 8
Description: The pancreases were procured from male adult Sprague-Dawley (SD) rats. After 7 days acclimation, the animals were sacrificed by cervical dislocation and the entire pancreas was removed and digested with collagenase to isolate islets. After digestion, islets were maintained at 37° C. in RPMI 1640 (Carlsbad Calif., USA) pH 7.4, containing 10% (v/v) fetal calf serum, 1% penicillin/streptomycin, and 10 mM glucose in a humid atmosphere (5% CO2/95% O2), without the addition of any compound (control), or with the addition of 100 nM glucagon like peptide-1 (GLP-1); or 10 μg/mL Peptide 1, Peptide 12, or Peptide 16, as summarized in Table 4 below. Cultured islets were rinsed in Krebs-Ringer bicarbonate buffer (KRB), pH 7.4, previously gassed with a mixture of CO2/O2 (5/95%), and pre-incubated in 1.0 ml of KRB containing 0.5% (w/v) BSA and 1.5 mM glucose at 37° C. for 45 min. After this period, groups of 5 islets were incubated in 0.6 ml KRB with the addition of 1.5 or 12.0 mM glucose, with or without the addition of peptides for 60 min. At the end of the incubation period, aliquots of the medium were collected for insulin quantitation.

[6] = plasma, read-out: Peptide concentration, Plasma

Substance | stability in mouse plasma [1] | stability in rat plasma [2] | level at 0.5 h ([3]; pancreas (homogenate), pancreatic homogenate, read-out: Peptide concentration, Pancreas) [ng/mL] | level at 0.5 h [3, 6] [ng/mL] | time stable in isotonic acetate buffer (pH 5.0) at 4° C. [4] | time stable in isotonic acetate buffer (pH 5.0) at 25° C. [4] | glucose-stimulated insulin release vs islets without peptide [5] | Peptide concentration, Pancreas ([3]; pancreatic homogenate)
Ac-IGLHDPSHGTLPNGS-NH2 [Peptide 31, Ac-IGLHDPSHGTLPNGS-NH2] | exhibited good stability in mouse plasma and was more stable than INGAP-PP | exhibited good stability in rat plasma and were more stable than INGAP-PP | 1630 ± 340 | 15400 ± 3520 | up to 90 days | less than 7 days | – | –
Ac-IGLHDPSHGTLPNGS-OH [Peptide 16, Ac-IGLHDPSHGTLPNGS-OH] | exhibited good stability in mouse plasma and were more stable than INGAP-PP | exhibited good stability in rat plasma and were more stable than INGAP-PP | – | – | up to 90 days | less than 7 days | released significantly more insulin than those cultured without the addition of peptides | –
H-IGLHDPSHGTLPNGS-OH [Peptide 1, H-IGLHDPSHGTLPNGS-OH, reference compound] | – | – | – | 210 ± 107 | – | – | no stimulation was observed | NA (Below the lower limit of quantitation (LLOQ) 2.5 ng/mL)
